Laboratory results: US12391648B2, “Pyridyloxy thioester derivative and preparation method therefor, herbicidal composition, and application” (Qingdao Kingagroot Chemical Compound Co., Ltd., priority 2018, dated 2025)

Assays:
Test in all cases: Post-emergence test experiment (Table 3, 1000 g/ha)
Format in all cases: in vivo
Details in all cases: post-emergence spray, after 3 weeks, fresh weight inhibition
Abutilon theophrasti = tested on: Abutilon theophrasti
Method in brief: (§1)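 Activity graded levels 0-5 by fresh-weight inhibition (level 5 above 85%, level 0 below 5%), assessed 3 weeks after treatment. Plants grown in greenhouse pots were sprayed post-emergence at 2-3 leaves using acetone/tween-80 solutions with methyl oleate synergist (1.5 L/ha).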

Digitaria sanguinalis = tested on: Digitaria sanguinalis
Method in brief: as §1

Galium spurium = tested on: Galium spurium
Method in brief: as §1

Leptochloa chinensis = tested on: Leptochloa chinensis
Method in brief: as §1

Monochoria vaginalis = tested on: Monochoria vaginalis
Method in brief: as §1

Setaria viridis = tested on: Setaria viridis
Method in brief: as §1

| SMILES | Activity level (growth inhibition rate) Abutilon theophrasti (Abutilon theophrasti) | Activity level (growth inhibition rate) Digitaria sanguinalis (Digitaria sanguinalis) | Activity level (growth inhibition rate) Galium spurium (Galium spurium) | Activity level (growth inhibition rate) Leptochloa chinensis (Leptochloa chinensis) | Activity level (growth inhibition rate) Monochoria Vaginalis (Monochoria vaginalis) | Activity level (growth inhibition rate) Setaria viridis (Setaria viridis) |
| --- | --- | --- | --- | --- | --- | --- |
| CCCCCCCCCSC(=O)C(C)Oc1nc(F)c(Cl)c(N)c1Cl (stereo not drawn) [Compound 140] | 5 (Level 5: the growth inhibition rate is greater than 85%) | 5 (Level 5: the growth inhibition rate is greater than 85%) | 5 (Level 5: the growth inhibition rate is greater than 85%) | 5 (Level 5: the growth inhibition rate is greater than 85%) | 5 (Level 5: the growth inhibition rate is greater than 85%) | 5 (Level 5: the growth inhibition rate is greater than 85%) |
| CCCCCCCCCCSC(=O)C(C)Oc1nc(F)c(Cl)c(N)c1Cl (stereo not drawn) [Compound 141] | 5 (Level 5: the growth inhibition rate is greater than 85%) | 5 (Level 5: the growth inhibition rate is greater than 85%) | 5 (Level 5: the growth inhibition rate is greater than 85%) | 5 (Level 5: the growth inhibition rate is greater than 85%) | 5 (Level 5: the growth inhibition rate is greater than 85%) | 5 (Level 5: the growth inhibition rate is greater than 85%) |
| CCCCCCCCCCCSC(=O)C(C)Oc1nc(F)c(Cl)c(N)c1Cl (stereo not drawn) [Compound 142] | 5 (Level 5: the growth inhibition rate is greater than 85%) | 5 (Level 5: the growth inhibition rate is greater than 85%) | 5 (Level 5: the growth inhibition rate is greater than 85%) | 5 (Level 5: the growth inhibition rate is greater than 85%) | 5 (Level 5: the growth inhibition rate is greater than 85%) | 5 (Level 5: the growth inhibition rate is greater than 85%) |
| CCCCCCCCCCCCSC(=O)C(C)Oc1nc(F)c(Cl)c(N)c1Cl (stereo not drawn) [Compound 143] | 5 (Level 5: the growth inhibition rate is greater than 85%) | 5 (Level 5: the growth inhibition rate is greater than 85%) | 5 (Level 5: the growth inhibition rate is greater than 85%) | 5 (Level 5: the growth inhibition rate is greater than 85%) | 5 (Level 5: the growth inhibition rate is greater than 85%) | 5 (Level 5: the growth inhibition rate is greater than 85%) |
| CCCC(C)SC(=O)C(C)Oc1nc(F)c(Cl)c(N)c1Cl (stereo not drawn) [Compound 144] | 5 (Level 5: the growth inhibition rate is greater than 85%) | 5 (Level 5: the growth inhibition rate is greater than 85%) | 5 (Level 5: the growth inhibition rate is greater than 85%) | 5 (Level 5: the growth inhibition rate is greater than 85%) | 5 (Level 5: the growth inhibition rate is greater than 85%) | 5 (Level 5: the growth inhibition rate is greater than 85%) |
| CCC(C)CSC(=O)C(C)Oc1nc(F)c(Cl)c(N)c1Cl (stereo not drawn) [Compound 145] | 5 (Level 5: the growth inhibition rate is greater than 85%) | 5 (Level 5: the growth inhibition rate is greater than 85%) | 5 (Level 5: the growth inhibition rate is greater than 85%) | 5 (Level 5: the growth inhibition rate is greater than 85%) | 5 (Level 5: the growth inhibition rate is greater than 85%) | 5 (Level 5: the growth inhibition rate is greater than 85%) |
| CC(C)CCSC(=O)C(C)Oc1nc(F)c(Cl)c(N)c1Cl (stereo not drawn) [Compound 146] | 5 (Level 5: the growth inhibition rate is greater than 85%) | 5 (Level 5: the growth inhibition rate is greater than 85%) | 5 (Level 5: the growth inhibition rate is greater than 85%) | 5 (Level 5: the growth inhibition rate is greater than 85%) | 5 (Level 5: the growth inhibition rate is greater than 85%) | 5 (Level 5: the growth inhibition rate is greater than 85%) |
| CC(Oc1nc(F)c(Cl)c(N)c1Cl)C(=O)SC(C)C(C)C (stereo not drawn) [Compound 147] | 5 (Level 5: the growth inhibition rate is greater than 85%) | 5 (Level 5: the growth inhibition rate is greater than 85%) | 5 (Level 5: the growth inhibition rate is greater than 85%) | 5 (Level 5: the growth inhibition rate is greater than 85%) | 5 (Level 5: the growth inhibition rate is greater than 85%) | 5 (Level 5: the growth inhibition rate is greater than 85%) |
| CC(Oc1nc(F)c(Cl)c(N)c1Cl)C(=O)SCC(C)(C)C (stereo not drawn) [Compound 148] | 5 (Level 5: the growth inhibition rate is greater than 85%) | 5 (Level 5: the growth inhibition rate is greater than 85%) | 5 (Level 5: the growth inhibition rate is greater than 85%) | 5 (Level 5: the growth inhibition rate is greater than 85%) | 5 (Level 5: the growth inhibition rate is greater than 85%) | 5 (Level 5: the growth inhibition rate is greater than 85%) |
| CCC(C)(C)SC(=O)C(C)Oc1nc(F)c(Cl)c(N)c1Cl (stereo not drawn) [Compound 149] | 5 (Level 5: the growth inhibition rate is greater than 85%) | 5 (Level 5: the growth inhibition rate is greater than 85%) | 5 (Level 5: the growth inhibition rate is greater than 85%) | 5 (Level 5: the growth inhibition rate is greater than 85%) | 5 (Level 5: the growth inhibition rate is greater than 85%) | 5 (Level 5: the growth inhibition rate is greater than 85%) |
